Experiments:
Test in all cases: relative viability (nuclei count vs DMSO), 5 days (fraction); higher = more cells survive
[1] = system: BEN
Procedure, shortened: (§1)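 Relative viability is defined as nuclei in treated wells over nuclei in vehicle wells. Duplicate plates were run and medians reported. Lung cancer cell lines in 1536-well plates were dosed by pin tool one day after seeding, with one drug or with a fixed anchor-drug dose plus five library-drug doses (not always all listed) in √10 steps, and nuclei were counted after 5 days.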

[2] = system: NCI-H2085
Procedure, shortened: as §1

[3] = system: LOU-NH91
Procedure, shortened: as §1

[4] = system: LCLC-103H
Procedure, shortened: as §1

[5] = system: RERF-LC-KJ
Procedure, shortened: as §1

[6] = system: A-427
Procedure, shortened: as §1

[7] = system: CAL-12T
Procedure, shortened: as §1

[8] = system: NCI-H460
Procedure, shortened: as §1

[9] = system: NCI-H727
Procedure, shortened: as §1

[10] = system: HARA
Procedure, shortened: as §1

[11] = system: NCI-H647
Procedure, shortened: as §1

[12] = system: ABC-1
Procedure, shortened: as §1

[13] = system: NCI-H520
Procedure, shortened: as §1

[14] = system: NCI-H1944
Procedure, shortened: as §1

[15] = system: NCI-H661
Procedure, shortened: as §1

[16] = system: NCI-H1651
Procedure, shortened: as §1

[17] = system: NCI-H2126
Procedure, shortened: as §1

[18] = system: NCI-H1975
Procedure, shortened: as §1

[19] = system: NCI-H596
Procedure, shortened: as §1

[20] = system: NCI-H838
Procedure, shortened: as §1

[21] = system: NCI-H1734
Procedure, shortened: as §1

[22] = system: NCI-H1666
Procedure, shortened: as §1

CCNC(=O)c1noc(-c2cc(C(C)C)c(O)cc2O)c1-c1ccc(CN2CCOCC2)cc1 [Luminespib] + C[C@]1(O)C[C@@H](c2nc(-c3ccc4ccc(-c5ccccc5)nc4c3)c3c(N)nccn32)C1 [Linsitinib] (partner 1 µM)
relative viability ([1]; first compound 0.002 µM): 0.955 | relative viability ([1]; first compound 0.006325 µM): 0.892 | relative viability ([1]; first compound 0.02 µM): 0.427 | relative viability ([1]; first compound 0.06325 µM): 0.627 | relative viability ([1]; first compound 0.2 µM): 0.252 | relative viability ([2]; first compound 0.002 µM): 0.405 | relative viability ([2]; first compound 0.006325 µM): 0.76 | relative viability ([2]; first compound 0.02 µM): 0.826 | relative viability ([2]; first compound 0.06325 µM): 0.442 | relative viability ([2]; first compound 0.2 µM): 0.241 | relative viability ([3]; first compound 0.002 µM): 0.913 | relative viability ([3]; first compound 0.006325 µM): 0.923 | relative viability ([3]; first compound 0.02 µM): 0.649 | relative viability ([3]; first compound 0.06325 µM): 0.393 | relative viability ([3]; first compound 0.2 µM): 0.348 | relative viability ([4]; first compound 0.002 µM): 1.14 | relative viability ([4]; first compound 0.006325 µM): 0.971 | relative viability ([4]; first compound 0.02 µM): 1.1 | relative viability ([4]; first compound 0.06325 µM): 1.03 | relative viability ([4]; first compound 0.2 µM): 1.04 | relative viability ([5]; first compound 0.002 µM): 0.9 | relative viability ([5]; first compound 0.006325 µM): 0.846 | relative viability ([5]; first compound 0.02 µM): 0.976 | relative viability ([5]; first compound 0.06325 µM): 0.968 | relative viability ([5]; first compound 0.2 µM): 0.366 | relative viability ([6]; first compound 0.002 µM): 1.12 | relative viability ([6]; first compound 0.006325 µM): 1.09 | relative viability ([6]; first compound 0.02 µM): 0.918 | relative viability ([6]; first compound 0.06325 µM): 1.12 | relative viability ([6]; first compound 0.2 µM): 1.09 | relative viability ([7]; first compound 0.002 µM): 0.761 | relative viability ([7]; first compound 0.006325 µM): 0.787 | relative viability ([7]; first compound 0.02 µM): 0.72 | relative viability ([7]; first compound 0.06325 µM): 0.128 | relative viability ([7]; first compound 0.2 µM): 0.115 | relative viability ([8]; first compound 0.002 µM): 0.862 | relative viability ([8]; first compound 0.006325 µM): 0.64 | relative viability ([8]; first compound 0.02 µM): 0.0374 | relative viability ([8]; first compound 0.06325 µM): 0.0101 | relative viability ([8]; first compound 0.2 µM): 0.0074 | relative viability ([9]; first compound 0.002 µM): 0.317 | relative viability ([9]; first compound 0.006325 µM): 0.258 | relative viability ([9]; first compound 0.02 µM): 0.284 | relative viability ([9]; first compound 0.06325 µM): 0.221 | relative viability ([9]; first compound 0.2 µM): 0.211 | relative viability ([10]; first compound 0.002 µM): 0.85 | relative viability ([10]; first compound 0.006325 µM): 0.797 | relative viability ([10]; first compound 0.02 µM): 1.12 | relative viability ([10]; first compound 0.06325 µM): 0.738 | relative viability ([10]; first compound 0.2 µM): 0.0694 | relative viability ([11]; first compound 0.002 µM): 1.23 | relative viability ([11]; first compound 0.006325 µM): 1.26 | relative viability ([11]; first compound 0.02 µM): 0.914 | relative viability ([11]; first compound 0.06325 µM): 0.0924 | relative viability ([11]; first compound 0.2 µM): 0.0826 | relative viability ([12]; first compound 0.002 µM): 0.869 | relative viability ([12]; first compound 0.006325 µM): 0.941 | relative viability ([12]; first compound 0.02 µM): 0.676 | relative viability ([12]; first compound 0.06325 µM): 0.257 | relative viability ([12]; first compound 0.2 µM): 0.227 | relative viability ([13]; first compound 0.002 µM): 1.27 | relative viability ([13]; first compound 0.006325 µM): 0.966 | relative viability ([13]; first compound 0.02 µM): 0.94 | relative viability ([13]; first compound 0.06325 µM): 0.134 | relative viability ([13]; first compound 0.2 µM): 0.121 | relative viability ([14]; first compound 0.002 µM): 1.21 | relative viability ([14]; first compound 0.006325 µM): 1.1 | relative viability ([14]; first compound 0.02 µM): 0.791 | relative viability ([14]; first compound 0.06325 µM): 1.07 | relative viability ([14]; first compound 0.2 µM): 1.09 | relative viability ([15]; first compound 0.002 µM): 0.569 | relative viability ([15]; first compound 0.006325 µM): 0.527 | relative viability ([15]; first compound 0.02 µM): 0.369 | relative viability ([15]; first compound 0.06325 µM): 0.395 | relative viability ([15]; first compound 0.2 µM): 0.187 | relative viability ([16]; first compound 0.002 µM): 0.874 | relative viability ([16]; first compound 0.006325 µM): 0.983 | relative viability ([16]; first compound 0.02 µM): 1.08 | relative viability ([16]; first compound 0.06325 µM): 0.308 | relative viability ([16]; first compound 0.2 µM): 0.174 | relative viability ([17]; first compound 0.002 µM): 0.686 | relative viability ([17]; first compound 0.006325 µM): 0.652 | relative viability ([17]; first compound 0.02 µM): 0.536 | relative viability ([17]; first compound 0.06325 µM): 0.761 | relative viability ([17]; first compound 0.2 µM): 0.741 | relative viability ([18]; first compound 0.002 µM): 1.08 | relative viability ([18]; first compound 0.006325 µM): 0.882 | relative viability ([18]; first compound 0.02 µM): 0.492 | relative viability ([18]; first compound 0.06325 µM): 0.156 | relative viability ([18]; first compound 0.2 µM): 0.141 | relative viability ([19]; first compound 0.002 µM): 1.06 | relative viability ([19]; first compound 0.006325 µM): 0.995 | relative viability ([19]; first compound 0.06325 µM): 1.06 | relative viability ([19]; first compound 0.2 µM): 0.907 | relative viability ([20]; first compound 0.002 µM): 1 | relative viability ([20]; first compound 0.006325 µM): 0.942 | relative viability ([20]; first compound 0.02 µM): 0.77 | relative viability ([20]; first compound 0.06325 µM): 0.13 | relative viability ([20]; first compound 0.2 µM): 0.149 | relative viability ([21]; first compound 0.002 µM): 0.917 | relative viability ([21]; first compound 0.006325 µM): 0.792 | relative viability ([21]; first compound 0.02 µM): 0.7 | relative viability ([21]; first compound 0.06325 µM): 0.258 | relative viability ([21]; first compound 0.2 µM): 0.167 | relative viability ([22]; first compound 0.002 µM): 0.707 | relative viability ([22]; first compound 0.006325 µM): 0.785 | relative viability ([22]; first compound 0.02 µM): 0.751 | relative viability ([22]; first compound 0.06325 µM): 0.803 | relative viability ([22]; first compound 0.2 µM): 0.511
